The supplement of paper PMC10307832

What was measured:
Assay in all cases: relative viability (nuclei count vs DMSO), 5 days (fraction); higher = more cells survive
NVP-TAE684 + Decitabine = compound: COc1cc(N2CCC(N3CCN(C)CC3)CC2)ccc1Nc1ncc(Cl)c(Nc2ccccc2S(=O)(=O)C(C)C)n1 [NVP-TAE684] + Nc1ncn([C@H]2C[C@H](O)[C@@H](CO)O2)c(=O)n1 [Decitabine] (partner 2 µM)
Summary of the method: (§1)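 For relative viability, nuclei counts in treated wells were divided by those in vehicle wells. Lung cancer cell lines had been pin-tool dosed in 1536-well plates the day after seeding and cultured for 5 days, then fixed and stained in one step (final 0.05% Triton X-100, 1% formaldehyde, 1 ug/ml Hoechst) and imaged at 4×. Doses were one drug alone or a fixed anchor-drug dose plus five library-drug doses (not always all listed) in √10 steps, and values are duplicate-plate medians.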

[1] = compound: C1=CC=C2C(=C1)N=C(S2)C(C#N)C3=NC(=NC=C3)NCCC4=CN=CC=C4 + CCNC(=O)c1noc(-c2cc(C(C)C)c(O)cc2O)c1-c1ccc(CN2CCOCC2)cc1 [Luminespib] (partner 0.01 µM)
Summary of the method: as §1

[2] = compound: C1=CC=C2C(=C1)N=C(S2)C(C#N)C3=NC(=NC=C3)NCCC4=CN=CC=C4 + Cc1nc(NC(=O)N2CCC[C@H]2C(N)=O)sc1-c1ccnc(C(C)(C)C(F)(F)F)c1 [Alpelisib] (partner 2 µM)
Summary of the method: as §1

[3] = compound: C1=CC=C2C(=C1)N=C(S2)C(C#N)C3=NC(=NC=C3)NCCC4=CN=CC=C4 + N=C(N)NC(=N)NCCc1ccccc1 [Phenformin] (partner 250 µM)
Summary of the method: as §1

Cell Line | relative viability (NVP-TAE684 + Decitabine; first compound 0.2 µM) | relative viability (NVP-TAE684 + Decitabine; first compound 0.6325 µM) | relative viability (NVP-TAE684 + Decitabine; first compound 2 µM) | relative viability ([1]; first compound 0.005 µM) | relative viability ([1]; first compound 0.01581 µM) | relative viability ([1]; first compound 0.05 µM) | relative viability ([1]; first compound 0.1581 µM) | relative viability ([1]; first compound 0.5 µM) | relative viability ([2]; first compound 0.005 µM) | relative viability ([2]; first compound 0.01581 µM) | relative viability ([2]; first compound 0.05 µM) | relative viability ([2]; first compound 0.1581 µM) | relative viability ([2]; first compound 0.5 µM) | relative viability ([3]; first compound 0.005 µM) | relative viability ([3]; first compound 0.01581 µM) | relative viability ([3]; first compound 0.05 µM) | relative viability ([3]; first compound 0.1581 µM) | relative viability ([3]; first compound 0.5 µM)
NCI-H2085 | 0.533 | 0.458 | 0.458 | 0.439 | 0.368 | 0.4 | 0.388 | 0.413 | 0.87 | 0.875 | 0.912 | 0.959 | 0.867 | 0.639 | 0.702 | 0.595 | 0.819 | 0.799
NCI-H2087 | 0.305 | 0.261 | 0.192 | 0.163 | 0.159 | 0.222 | 0.2 | 0.15 | 1.06 | 1.14 | 0.979 | 1.14 | 1.05 | 0.472 | 0.495 | 0.471 | 0.623 | 0.426
NCI-H2126 | 0.56 | 0.603 | 0.459 | 0.561 | 0.87 | 0.73 | 0.997 | 0.836 | 0.722 | 0.734 | 0.773 | 0.765 | 0.793 | 0.536 | 0.529 | 0.505 | 0.543 | 0.529
NCI-H2170 | 0.472 | 0.477 | 0.418 | 0.702 | 0.803 | 0.621 | 1.01 | 0.894 | – | 0.801 | 0.845 | 0.838 | 0.723 | 0.396 | 0.405 | 0.446 | 0.417 | 0.384
NCI-H2347 | 0.602 | 0.679 | 0.571 | 0.811 | 0.355 | 0.381 | 0.488 | 0.363 | 1.1 | 0.992 | 0.954 | 1.05 | 1.18 | 0.417 | 0.334 | 0.322 | 0.611 | 0.455
NCI-H2405 | 0.684 | 0.683 | 0.397 | 0.708 | 0.638 | 0.654 | 0.655 | 0.809 | 0.75 | 0.784 | 0.734 | 0.731 | 0.839 | 0.362 | 0.364 | 0.358 | 0.455 | 0.407
NCI-H3122 | 0.152 | 0.109 | 0.103 | 0.0736 | 0.0973 | 0.553 | 0.0763 | 0.0863 | 0.676 | 0.791 | 0.819 | 0.977 | 0.852 | 0.393 | 0.37 | 0.364 | 0.44 | 0.35
PC-3 [JPC-3] | 0.846 | 0.73 | 0.75 | 0.681 | 0.71 | 0.693 | 0.724 | 0.561 | 0.935 | 1.02 | 0.96 | 1.08 | 0.954 | 0.502 | 0.485 | 0.456 | 0.48 | 0.419
PC-14 | 0.217 | 0.191 | 0.0633 | 0.197 | – | 0.117 | 0.119 | 0.155 | 0.708 | 1.08 | 1 | 1.17 | 0.742 | 0.381 | 0.401 | 0.542 | 0.75 | 0.45
RERF-LC-KJ | 0.689 | 0.574 | 0.3 | 0.935 | 0.982 | 1.4 | 1.18 | 1.06 | 0.915 | 0.849 | 0.759 | 0.899 | 0.82 | 0.396 | 0.447 | 0.403 | 0.442 | 0.377
SK-LU-1 | 0.58 | 0.658 | 0.602 | 0.185 | 0.194 | 0.187 | 0.223 | 0.197 | – | 0.962 | 0.824 | 1.27 | 0.858 | 0.323 | 0.593 | 0.529 | 0.608 | 0.475
SK-MES-1 | 0.41 | 0.335 | 0.305 | 1.16 | 0.937 | 0.669 | 0.962 | 0.85 | 1.17 | 0.979 | 1.12 | 1.14 | 0.859 | 0.677 | 0.776 | 0.648 | 0.767 | 0.62
SW 1573 | 0.526 | 0.497 | 0.104 | 0.317 | 0.292 | 0.221 | 0.275 | 0.193 | 0.628 | 0.726 | – | 0.803 | 0.686 | 0.251 | 0.395 | – | 0.484 | 0.382
